In PubChem BioAssay (NCI) one finds TGI data, which are given here for four compounds.

Some test systems named below: MDA-N; HOP-92 NSCLC; 786-0 renal; SNB-75 CNS; K-562 leukemia; CCRF-CEM leukemia; OVCAR-3 ovarian; COLO 205 colon; RXF 393 renal; UACC-257 melanoma; SK-MEL-2 melanoma.
Common to all, as to assay: NCI-60 cell line screen, 48 h

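96-well plates; 48 h exposure; 5 concentrations. Endpoints by linear interpolation between flanking doses. Not reached: highest tested concentration assigned. The concentration for full growth arrest is given as TGI.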

Take `C=C1CC(c2ccc(OCCCN3C(=O)c4ccccc4C3=O)c(OC)c2)OC1=O` (centres undefined): the TGI was determined as 16.4 µM with MDA-N; 3.51 µM in the test with HOP-92 NSCLC; 14.6 µM in the test on 786-0 renal; 8.06 µM with SNB-75 CNS; 2.68 µM in the test on K-562 leukemia; 3.79 µM in the test on CCRF-CEM leukemia. Besides, the TGI in the test with OVCAR-3 ovarian is 8.96 µM; with COLO 205 colon it was 5.33 µM; in the test on RXF 393 renal it was 7 µM; in the test on UACC-257 melanoma it was 12.8 µM; in the test on SK-MEL-2 melanoma, 18.4 µM.

Turning to `CC(=O)c1c2c(cc3c1CC1(Cc4ccccc4C1=O)C3)CCC2` (centres undefined), the TGI is more than 100 µM with MDA-N; 49.5 µM in the test with HOP-92 NSCLC; 95.9 µM in the test with 786-0 renal; more than 100 µM in the test on SNB-75 CNS; more than 100 µM with K-562 leukemia; more than 100 µM in the test on CCRF-CEM leukemia. In addition, the TGI with OVCAR-3 ovarian was 52.7 µM; with COLO 205 colon, 30.7 µM; in the test with RXF 393 renal, 59.1 µM; with UACC-257 melanoma, 64.6 µM; with SK-MEL-2 melanoma, 92 µM.

For `COC(=O)Cc1cc(O)c(C/C=C(\C)CC/C=C(\C)C(O)C(=O)C=C(C)C)cc1O` (centres undefined), the TGI in the test on MDA-N was more than 100 µM; with HOP-92 NSCLC it was 47.7 µM; in the test with 786-0 renal it was more than 100 µM; with SNB-75 CNS it was 56.4 µM; in the test with K-562 leukemia it was 39.1 µM; with CCRF-CEM leukemia it was 10.3 µM. Besides, the TGI in the test on OVCAR-3 ovarian came out at 42.5 µM; in the test with COLO 205 colon it was 57.7 µM; in the test on RXF 393 renal it was 30 µM; with UACC-257 melanoma it was 77.6 µM; with SK-MEL-2 melanoma, 48.6 µM.

Consider `COCCOCc1nc(C#N)c(N)o1`, for which the TGI in the test on MDA-N, in the test on HOP-92 NSCLC, in the test on 786-0 renal, in the test with SNB-75 CNS, in the test on K-562 leukemia and with CCRF-CEM leukemia was more than 100 µM in each case. For the same compound, the TGI with OVCAR-3 ovarian, in the test on COLO 205 colon, in the test on RXF 393 renal, with UACC-257 melanoma and with SK-MEL-2 melanoma was more than 100 µM throughout.
